From US20130095068A1, “AGENT FOR TREATING HCV INFECTION” (priority 2010, published 2013)
pEC50: −log10 of the molar value. “Also recorded” adds a separate entry of the source.

Key:
LucNeo#2 replicon cells = test: Cytotoxicity, Alamar Blue in LucNeo#2 replicon cells; assay type: cell-based; details: 72 hours, percentage of solvent-treated group
Description: (§1) LucNeo#2 replicon cells cultured to confluency were recovered by trypsin treatment, and were spread on a collagen-coated plate at a density of 20,000 cells/mL. The cell culture was conducted in an incubator at 37° C., 5% CO2, with 10% FCS/DMEM (containing mixed solution of penicillin-streptomycin, G418 and a non-essential amino acid). After 24 hours, the cells were rinsed and a compound of formula (I) was added as Test compound to final concentrations of 3.3 μM or 10 μM. At 72 hours after addition of the Test compound, the cells of one plate were rinsed, the cells were lysed with M-PER, and the intracellular luciferase activity was measured using a Promega kit. An Alamar Blue solution was also added to cells cultured under the same conditions, and the cytotoxicity was examined.
(§2) The intracellular luciferase activity and the Alamar Blue signal for cytotoxicity at 72 hours after Test compound addition were shown in Table 3 as a percentage with respect to the solvent-treated group.

[1] = tested on: genotype 1b HCV auto-replicating subgenomic replicon (luc-ubi-neo/ET replicon cells); test: Replicon assay, luciferase activity in luc-ubi-neo/ET HCV subgenome replicon cells; assay type: cell-based, Hepatitis C virus; details: for pEC50: Hepatitis C virus, 72 h, read-out: HCV replication inhibitory activity EC50; for Selectivity IC50/EC50 / Luciferase activity: Test compound alone; for Luciferase activity: 72 hours, percentage of solvent alone
Description: The inhibitory-effect on HCV replication and the cytotoxicity of a compound of formula (I) of the invention was examined by a replicon assay using HCV subgenome replicon cells.
(§3) The HCV subgenome replicon cells used were luc-ubi-neo/ET replicon cells, having the genotype 1b HCV auto-replicating subgenomic replicon, a luciferase reporter, ubiquitin, a neomycin phosphotransferase coding sequence, and three mutations for cell culturing (Pietschmann, T. et al., J. Virol. 76:4008-4021, 2002). The ET replicon cells were cultured in DMEM containing 10% FBS, 1% penicillin/streptomycin, 1% glutamine, and 250 μg/mL G418 in an incubator at 37° C., 5% CO2. For culturing with a Test compound of formula (I), it was performed under the same conditions in DMEM containing 5% FBS, 1% penicillin/streptomycin and 1% glutamine. The ET replicon cells were cultured in two 96-well plates, at 5000 cell/well, separately. On the following day, the Test compound alone diluting to different concentrations with a maximum concentration of 1.1 μM, was added to one plate, while human recombinant Interferon-α-2b (rIFNα-2b) at a fixed concentration of 0.1 IU/mL was added to another plate with the Test compound, simultaneously. At 72 hours after addition, the luciferase activity indicating amplification of HCV mRNA was measured. The cytotoxicity was measured with a CytoTox-1 Cell Proliferation Assay (Promega Corporation).
The luciferase activities, for the compound of formula (I) alone and for a combination of the compound of formula (I) and rIFNα-2b, were shown in Table 1 as percentage with respect to luciferase activity when using the solvent alone. The HCV replication inhibitory-activity was determined as the concentration which produced 50% inhibition of HCV replicon (EC50), and the cytotoxicity was determined as the concentration which produced 50% reduction in viable cells (IC50), while the selectivity was determined as the value of IC50/EC50; the results are summarized in Table 2.

HCV 1b genotype = test: Lowering effect on serum HCV RNA levels in HCV-infected human hepatocyte-transplanted mice (PXB mice); assay type: in vivo, Hepatitis C virus; details: oral; for Change in serum HCV RNA levels, average: day 14 versus day 0
Description: The lowering effect on serum HCV RNA levels was measured to determine the HCV replication inhibitory-effect of a compound of formula (I) of the invention were determined by measuring the serum HCV RNA levels.
Human hepatocyte-transplanted model mice (PXB mice) were prepared from uPA^+/+/SCID mice as host mice. The uPA^+/+/SCID mice are characterized by a combination of liver damage and serious immune deficiency complications. Commercially available frozen human hepatocytes (BD Biosciences, MA, USA) were grafted by infusion into the spleens of male or female uPA^+/+/SCID mice that had reached a postnatal age of 2 to 4 weeks, to create human hepatocyte-transplanted mice (PXB mice) having at least 70% of the mouse liver parenchymal cells replaced with human hepatocytes. […] HCV 1b genotype-infected patient serum (PhoenixBio) was injected through the orbital socket to a virus titer of 1×10^4 copies/mouse as measured by RT-PCR (Life Technologies Corporation, Carlsbad, USA), for the HCV infection. […] […] The number of mice per group was five. The solvent alone was used as a negative control. Administration was done once per day for 14 consecutive days. With the initial administration as day 0, blood was collected on day 0, 1, 3, 7, 10, 14, 17 and 21, and the serum HCV RNA levels were measured.
The percent change of blood HCV RNA levels in 14 days, which was 24 hours after final dosing (13 day), from those in day 0, which was predose, was calculated for each individual.

[2] = Cytotoxicity, CytoTox-1 Cell Proliferation Assay in ET replicon cells; assay type: cell-based; details: human, luc-ubi-neo/ET HCV genotype 1b subgenomic replicon cells; Test compound alone, 50% reduction in viable cells, maximum concentration 1.1 μM
Description: as §3, with “Corporation). […]” for “Corporation).”

[3] = tested on: HCV subgenomic replicon (LucNeo#2 replicon cells); test: Replicon assay, intracellular luciferase activity in LucNeo#2 replicon cells; assay type: cell-based, Hepatitis C virus; details: for Luciferase activity: 72 hours, percentage of solvent-treated group; for HCV replication inhibitory-activity (in words): LucNeo#2 replicon cells, 3.3 and 10 μM
Description: The inhibitory-effect on HCV replication and the cytotoxicity of a compound of formula (I) of the invention were examined by a replicon assay method using different HCV subgenomic replicon cells from Example 1, specifically LucNeo#2 replicon cells. The LucNeo#2 replicon cells are reporter cells created with the same concept as the luc-ubi-neo/ET replicon cells used in Test Example 1, and are utilized for analysis of the RNA replication mechanism of HCV or anti-HCV drug evaluation, but the gene sequence differs from that of luc-ubi-neo/ET replicon cells (Biochem. Biophys. Res. Commun. 343 (2006) 879-884).
as §1, §2

[4] = used in combination with rIFNα-2b

| SMILES | Cytotoxicity (Alamar Blue signal) (LucNeo#2 replicon cells; 3.3 μM) | Cytotoxicity (Alamar Blue signal) (LucNeo#2 replicon cells; 10 μM) | pEC50 [1] | Selectivity IC50/EC50 [1] | Luciferase activity ([1]; 0.001 μM) | Luciferase activity ([1]; 0.003 μM) | Luciferase activity ([1]; 0.03 μM) | Luciferase activity ([1]; 0.11 μM) | Luciferase activity ([1]; 0.35 μM) | Luciferase activity ([1]; 1.1 μM) | HCV replication inhibitory-activity (in words) ([1]; Test compound used alone) | HCV replication inhibitory-activity (in words) [1, 4] | Change in serum HCV RNA levels, average (HCV 1b genotype; 10 mg/kg/day once per day for 14 days) | Change in serum HCV RNA levels, average (HCV 1b genotype; 30 mg/kg/day once per day for 14 days) | Change in serum HCV RNA levels, average (HCV 1b genotype; 100 mg/kg/day once per day for 14 days) | Serum HCV RNA level (in words) (HCV 1b genotype; 14 days) | IC50 at 72 h [2] | Luciferase activity ([3]; 3.3 μM) | Luciferase activity ([3]; 10 μM) | HCV replication inhibitory-activity (in words) [3] |
| --- | --- | --- | --- | --- | --- | --- | --- | --- | --- | --- | --- | --- | --- | --- | --- | --- | --- | --- | --- | --- |
| COc1cc(/C=C2\CCCN([C@@H](C)c3ccc(F)cc3)C2=O)ccc1-n1cnc(C)c1 [Test compound A, (E)-1-[(1S)-1-(4-fluorophenyl)ethyl]-3-[3-methoxy-4-(4-methyl-1H-imidazol-1-yl)benzylidene]piperidin-2-one] | 100.00% | 101.50% | 6.44 | >3.06 | 87% | 89% | 87% | 89% | 51% | 21% | approximately dose-dependent HCV replication inhibitory-activity; also recorded: potent HCV replication inhibitory-activity at lower concentrations than the concentrations for the cytotoxicity | more potent reduction of HCV replication with dose-dependent manner; also recorded: even more potent HCV replication inhibitory-activity at lower concentrations than the concentrations for the cytotoxicity | 73.0% | 50.4% | 32.6% | dose-dependent reduction in serum HCV RNA level | > 1.1 µM | 116.60% | 42.80% | potent HCV replication inhibitory-activity by reducing the luciferase activity in a dose-dependent manner |
| COc1cc(/C=C2\CC[C@H]3COC[C@@H](c4cc(F)c(F)c(F)c4)N3C2=O)ccc1-n1cnc(C)c1 [Test compound B, (E)-(4R,9aS)-7-[3-methoxy-4-(4-methyl-1H-imidazol-1-yl)benzylidene]-4-(3,4,5-trifluorophenyl)hexahydropyrido[2,1-c][1,4]oxazin-6-one] | 101.00% | 100.75% | 6.51 | >3.55 | 72% | 73% | 62% | 68% | 48% | 30% | approximately dose-dependent HCV replication inhibitory-activity; also recorded: potent HCV replication inhibitory-activity at lower concentrations than the concentrations for the cytotoxicity | more potent reduction of HCV replication with dose-dependent manner; also recorded: even more potent HCV replication inhibitory-activity at lower concentrations than the concentrations for the cytotoxicity |  |  |  |  | > 1.1 µM | 50.30% | 27.80% | potent HCV replication inhibitory-activity by reducing the luciferase activity in a dose-dependent manner |
